# Reference: paper PMC10648349, “Aromatic Diboronic Acids as Effective KPC/AmpC Inhibitors” (Molecules, 2023)
# Tests used:
# C. krusei ATCC 6258 = experiment: antifungal activity (disc-diffusion, MIC, MFC); format: cell-based, Candida krusei; details: Pichia kudriavzevii, ATCC6258; for zone of inhibition at 0.4 mg/disc: 0.4 mg per disc, 9 mm disc (fluconazole 0.025 mg, 6 mm disc), - no zone, read-out: Diameter of inhibition zone; for MIC: fluconazole by Etest
# Summary of the method: (§1)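 Diboronic acids (DMSO solutions) at 0.4 mg per disc were used for diffusion testing. Dilution endpoints were MIC, MBC and MFC, per CLSI and EUCAST recommendations.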
# [1] = tested on: E. coli 77 CMY-2-positive; experiment: combination disc test CDT-AmpC; format: cell-based; details: Escherichia coli; agent 0.1 mg per disc; read-out: Diameter of inhibition zone, CAZ-30 disc with agent
# [2] = tested on: K. pneumoniae ATCC 700603 ESBL-positive; experiment: combination disc test CDT-ESBL; format: cell-based; details: Klebsiella pneumoniae, ATCC700603; agent 0.1 mg per disc; read-out: Diameter of inhibition zone, CAZ-30 disc with agent
# [3] = tested on: K. pneumoniae 83 KPC-3-positive, CTX-M-3-positive; experiment: checkerboard microdilution, antibiotic plus tested agent; format: cell-based, Klebsiella pneumoniae
# Summary of the method: (§2)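 Chequerboard layout: tested agent in three two-fold steps (4–16 mg/L) crossed with seven β-lactam dilutions (1–64 mg/L), meropenem for KPC strains and ceftazidime for the cAmpC strain. FICI from first non-growth wells, off-scale MICs raised one doubling; ≤0.5 counts as synergy, >4 antagonism.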
# [4] = tested on: K. pneumoniae 81 KPC-3-positive; experiment: as above; format: cell-based, Klebsiella pneumoniae
# Summary of the method: as §2
# [5] = tested on: K. pneumoniae ATCC BAA-1705 KPC-2-positive; experiment: as above; format: cell-based, Klebsiella pneumoniae
# Summary of the method: as §2
# [6] = MTT-based viability assay; format: cell-based; details: human, MRC-5 human fibroblasts, 72 h, read-out: Viability of MRC-5 cells (% of viable cells ± SD)
# Summary of the method: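 Percent viable cells relative to control, measured in triplicate by MTT read-out at 570 nm. Cells: MRC-5 human fibroblasts cultured at 37 °C, 5% CO2 in MEME plus 10% FBS.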
# [7] = tested on: K. pneumoniae ATCC BAA 1705 KPC(+); experiment: screening test of direct antimicrobial activity (STDA), disc-diffusion; format: cell-based; details: Klebsiella pneumoniae, BAA1705; 0.3 mg per disc; - no zone; read-out: Diameter of inhibition zone around disc with tested agent
# Procedure: (§3) Prior to combination disc tests, screening tests of direct antimicrobial activity (STDA) of the tested agent against β-lactamase-producing strains were performed by the disc-diffusion method. Discs with 0.3 mg, 0.1 mg, and 0.03 mg of each agent were examined. The highest amount of an agent that caused no effect on bacterial growth was used in further experiments.
# E. coli 77 CMY-2(+) = experiment: as above; format: cell-based; details: Escherichia coli; 0.3 mg per disc; - no zone; read-out: Diameter of inhibition zone around disc with tested agent
# Procedure: as §3
# [8] = tested on: P. aeruginosa MUW 700 AmpC(+); experiment: as above; format: cell-based; details: Pseudomonas aeruginosa; 0.3 mg per disc; - no zone; read-out: Diameter of inhibition zone around disc with tested agent
# Procedure: as §3
# [9] = tested on: K. pneumoniae ATCC 700603 ESBL(+); experiment: as above; format: cell-based; details: Klebsiella pneumoniae, ATCC700603; 0.3 mg per disc; - no zone; read-out: Diameter of inhibition zone around disc with tested agent
# Procedure: as §3
# [10] = tested on: C. parapsilosis ATCC 22019; experiment: antifungal activity (disc-diffusion, MIC, MFC); format: cell-based, Candida parapsilosis; details: Lodderomyces parapsilosis, ATCC22019; for zone of inhibition at 0.4 mg/disc: 0.4 mg per disc, 9 mm disc (fluconazole 0.025 mg, 6 mm disc), - no zone, read-out: Diameter of inhibition zone; for MIC: fluconazole by Etest
# Summary of the method: as §1
# [11] = tested on: E. coli 77 CMY-2-positive; experiment: checkerboard microdilution, antibiotic plus tested agent; format: cell-based, Escherichia coli
# Summary of the method: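 Read-out is the antibiotic MIC with agent present, plus FICI = combined/alone MIC ratios summed for both partners. Meropenem pairs served for carbapenemase strains and ceftazidime pairs for the AmpC strain. Agent or PBA was tested at 4–16 mg/L.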
MIC (C. krusei ATCC 6258) [µg/mL],MIC [10] [µg/mL],Compound,zone of inhibition at 100 µg/disc [1] [mm],zone of inhibition at 100 µg/disc [2] [mm],Average FICI with ERT [3],Average FICI with IMI [3],Average FICI with MEM [3],The lowest FICI with ERT [3],The lowest FICI with IMI [3],The lowest FICI with MEM [3],Average FICI with ERT [4],"viability at 72 h, 12.5 mg/L [6] [%]","viability at 72 h, 25 mg/L [6] [%]","viability at 72 h, 50 mg/L [6] [%]",zone of inhibition at 300 µg/disc [7] [mm],zone of inhibition at 300 µg/disc (E. coli 77 CMY-2(+)) [mm],zone of inhibition at 300 µg/disc [8] [mm],zone of inhibition at 300 µg/disc [9] [mm],Average FICI with ceftazidime [11],The lowest FICI with ceftazidime [11],other results
100,100,OB(O)c1ccc(B(O)O)c(F)c1 [1b],20,15,0.43,0.43,0.60,0.27,0.27,0.27,0.43,140 ± 6.7,140 ± 8.3,117 ± 1.3,13,12,12,12,0.17,0.10,zone of inhibition at 0.4 mg/disc (C. krusei ATCC 6258): 22 mm; Average FICI with IMI [4]: 0.35; Average FICI with MEM [4]: 0.28; The lowest FICI with ERT [4]: 0.27; The lowest FICI with IMI [4]: 0.26; The lowest FICI with MEM [4]: 0.08; Average FICI with ERT [5]: 0.51; Average FICI with IMI [5]: 0.43; Average FICI with MEM [5]: 0.43; The lowest FICI with ERT [5]: 0.51; The lowest FICI with IMI [5]: 0.27; The lowest FICI with MEM [5]: 0.27; zone of inhibition at 0.4 mg/disc [10]: 12 mm
400,> 400,OB(O)c1ccc(B(O)O)c(F)c1F [1c],20,14,,,,,,,,112 ± 3.8,103 ± 3,96.7 ± 3.3,12,17,13,14,0.19,0.14,
200,200,OB(O)c1cc(F)c(B(O)O)c(F)c1 [1d],20,14,0.69,0.52,0.61,0.52,0.51,0.29,0.40,111.6 ± 1.1,104 ± 8.9,83.3 ± 1.2,15,13,12,14,0.23,0.17,Average FICI with IMI [4]: 0.36; Average FICI with MEM [4]: 0.29; The lowest FICI with ERT [4]: 0.17; The lowest FICI with IMI [4]: 0.27; The lowest FICI with MEM [4]: 0.10; Average FICI with ERT [5]: 0.86; Average FICI with IMI [5]: 0.69; Average FICI with MEM [5]: 0.44; The lowest FICI with ERT [5]: 0.54; The lowest FICI with IMI [5]: 0.52; The lowest FICI with MEM [5]: 0.29; zone of inhibition at 0.4 mg/disc [10]: 14 mm
> 400,> 400,OB(O)c1cc(F)c(B(O)O)cc1F [1e],20,15,0.63,0.55,0.63,0.33,0.52,0.33,0.55,107 ± 3.3,105 ± 10,117 ± 4.6,15,18,14,14,0.17,0.14,zone of inhibition at 0.4 mg/disc (C. krusei ATCC 6258): 16 mm; Average FICI with IMI [4]: 0.38; Average FICI with MEM [4]: 0.46; The lowest FICI with ERT [4]: 0.52; The lowest FICI with IMI [4]: 0.29; The lowest FICI with MEM [4]: 0.33; Average FICI with ERT [5]: 0.88; Average FICI with IMI [5]: 0.71; Average FICI with MEM [5]: 0.46; The lowest FICI with ERT [5]: 0.58; The lowest FICI with IMI [5]: 0.54; The lowest FICI with MEM [5]: 0.33; zone of inhibition at 0.4 mg/disc [10]: 15 mm
